For experiment [1], the system named is HT-1080. Put plainly: Anti-ferroptotic activity against Erastin-induced ferroptosis in human HT-1080 cells. It is filed as functional, cell-based.
The subject of experiment [2] is HT-1080. Put plainly: Antioxidant activity in human HT-1080 cells assessed as reduction in ROS production in cytoplasm at 0.01 to 1 uM measured by H2DCFDA staining method. It is filed as functional, cell-based. The conditions noted are these: dose 0.01-1 µM.
The test system of experiment [3] is Calu-1. Put plainly: Anti-ferroptotic activity against Erastin-induced ferroptosis in human Calu-1 cells assessed as decrease in smaller and rounder cells measured by cytocalcein violet 450 staining method. It is filed as functional, cell-based.
Experiment [4] relates to HT-1080. Description: Anti-ferroptotic activity against Erastin-induced ferroptosis in human HT-1080 cells assessed as decrease in MDA level at 0.01 to 1 uM. It is filed as functional, cell-based. The following applies: dose 0.01-1 µM.
Experiment [5] relates to Mus musculus. Put plainly: Protection against doxorubicin-induced cardiomyopathy model of mouse assessed as decrease in serum LDH level at 10 to 30 mg/kg, ip administered 2 hrs prior to doxorubicin administration. The format is functional, organism-based. The following applies: dose 10-30 mg/kg.
The test system of experiment [6] is Mus musculus. Put plainly: Protection against doxorubicin-induced cardiomyopathy model of mouse assessed as […] in collagen outflow at 10 to 30 mg/kg, ip administered 2 hrs prior to doxorubicin administration measured by H and E staining method. It is filed as functional, organism-based. The conditions noted are these: dose 10-30 mg/kg.
Experiment [7] relates to Mus musculus. Put plainly: Protection against doxorubicin-induced cardiomyopathy model of mouse assessed as decrease in serum AST level at 10 to 30 mg/kg, ip administered 2 hrs prior to doxorubicin administration. It is filed as functional, organism-based. The conditions noted are these: dose 10-30 mg/kg.
The target in experiment [8] is Voltage-gated inwardly rectifying potassium channel KCNH2 (Homo sapiens, UniProt Q12809). Put plainly: Inhibition of hERG. It is filed as toxicity. (The hERG channel carries a current that helps repolarise heart muscle cells.)
Experiment [9] concerns Calu-1. Put plainly: Anti-ferroptotic activity against Erastin-induced ferroptosis in human Calu-1 cells assessed as decrease in smaller and rounder cells measured by 7-AAD staining method. The format is functional, cell-based.
Experiment [10] concerns Mus musculus. Put plainly: Protection against doxorubicin-induced cardiomyopathy model of mouse assessed as decrease in serum ALT level at 10 to 30 mg/kg, ip administered 2 hrs prior to doxorubicin administration. It is filed as functional, organism-based. The conditions noted are these: dose 10-30 mg/kg.
Experiment [11] can be described thus: Antioxidant activity assessed as DPPH radical scavenging activity at 10 to 50 uM. The conditions noted are these: dose 10-50 µM. It is filed as functional.
In experiment [12] the test system is Mus musculus. Description: Protection against doxorubicin-induced cardiomyopathy model of mouse assessed as […] in collagen outflow at 10 to 30 mg/kg, ip administered 2 hrs prior to doxorubicin administration measured by Sirius red staining method. It is filed as functional, organism-based. The conditions noted are these: dose 10-30 mg/kg.
For experiment [13], the system named is HT-1080. Description: Anti-ferroptotic activity against Erastin-induced ferroptosis in human HT-1080 cells assessed as decrease in smaller and rounder cells measured by 7-AAD staining method. It is filed as functional, cell-based.
Experiment [14] concerns HT-1080. Description: Anti-ferroptotic activity against Erastin-induced ferroptosis in human HT-1080 cells assessed as cell viability measured by MTT assay. It is filed as functional, cell-based.
In another experiment the test system is MDA-MB-231. Description: Anti-ferroptotic activity against Erastin-induced ferroptosis in human MDA-MB-231 cells assessed as cell viability measured by MTT assay. The format is functional, cell-based.
Experiment [15] concerns Calu-1. Description: Anti-ferroptotic activity against Erastin-induced ferroptosis in human Calu-1 cells assessed as cell viability measured by MTT assay. The format is functional, cell-based. A general note: Tetrazolium assays rely on reduction of a dye to a coloured formazan, in cell work by metabolically active cells.
Experiment [16] concerns Mus musculus. Description: Protection against doxorubicin-induced cardiomyopathy model of mouse assessed as decrease in serum CK-MB level at 10 to 30 mg/kg, ip administered 2 hrs prior to doxorubicin administration. The format is functional, organism-based. The following applies: dose 10-30 mg/kg.
The next experiment deals with ES-2. Put plainly: Anti-ferroptotic activity against Erastin-induced ferroptosis in human ES2 cells assessed as cell viability measured by MTT assay. The format is functional, cell-based.
The test system of experiment [17] is HT-1080. Description: Anti-ferroptotic activity against Erastin-induced ferroptosis in human HT-1080 cells assessed as decrease in smaller and rounder cells measured by cytocalcein violet 450 staining method. The format is functional, cell-based.
The subject of experiment [18] is HT-1080. Put plainly: Antioxidant activity in human HT-1080 cells assessed as reduction in lipid ROS production at 0.01 to 1 uM measured by C11-BODIPY staining method. The format is functional, cell-based. The following applies: dose 0.01-1 µM.

The source made the active and inactive calls. The calls are words filed in the database; no cut-off is given here.

Chain of Voltage-gated inwardly rectifying potassium channel KCNH2 (Q12809 whole entry): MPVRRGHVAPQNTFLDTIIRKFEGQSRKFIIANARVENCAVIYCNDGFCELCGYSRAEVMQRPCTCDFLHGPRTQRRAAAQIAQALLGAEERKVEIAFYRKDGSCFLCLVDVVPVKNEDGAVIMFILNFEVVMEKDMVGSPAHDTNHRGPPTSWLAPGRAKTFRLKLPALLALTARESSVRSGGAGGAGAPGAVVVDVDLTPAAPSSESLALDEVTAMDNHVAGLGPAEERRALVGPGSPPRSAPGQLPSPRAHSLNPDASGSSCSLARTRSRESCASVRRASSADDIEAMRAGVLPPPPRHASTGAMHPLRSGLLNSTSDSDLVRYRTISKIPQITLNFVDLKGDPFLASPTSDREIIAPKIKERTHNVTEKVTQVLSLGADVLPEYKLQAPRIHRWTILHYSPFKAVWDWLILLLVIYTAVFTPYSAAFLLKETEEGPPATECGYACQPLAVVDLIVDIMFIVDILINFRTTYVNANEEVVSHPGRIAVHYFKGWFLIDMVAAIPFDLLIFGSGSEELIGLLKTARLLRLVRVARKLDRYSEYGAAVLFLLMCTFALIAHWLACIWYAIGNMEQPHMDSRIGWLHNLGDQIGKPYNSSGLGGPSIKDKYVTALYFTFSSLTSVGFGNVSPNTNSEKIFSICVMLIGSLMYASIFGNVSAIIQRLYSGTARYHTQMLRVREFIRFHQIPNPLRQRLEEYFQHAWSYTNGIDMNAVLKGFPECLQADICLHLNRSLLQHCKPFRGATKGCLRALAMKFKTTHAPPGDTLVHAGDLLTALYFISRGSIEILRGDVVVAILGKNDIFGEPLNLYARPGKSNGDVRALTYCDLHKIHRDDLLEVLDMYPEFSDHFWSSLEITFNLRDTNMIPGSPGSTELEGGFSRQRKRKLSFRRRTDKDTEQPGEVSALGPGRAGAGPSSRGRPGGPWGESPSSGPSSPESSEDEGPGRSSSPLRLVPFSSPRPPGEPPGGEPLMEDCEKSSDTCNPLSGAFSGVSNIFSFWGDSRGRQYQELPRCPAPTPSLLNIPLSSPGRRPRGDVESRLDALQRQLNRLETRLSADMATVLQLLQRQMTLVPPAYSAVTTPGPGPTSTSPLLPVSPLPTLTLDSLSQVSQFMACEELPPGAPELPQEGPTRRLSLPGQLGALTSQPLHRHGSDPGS

As usually defined, the EC50 is the concentration giving half of the maximal effect. As to `C=C(c1ccc2c(c1)Nc1ccccc1S2)c1ccccc1N`, the response in the experiment on HT-1080 [1] was half-maximal at 29 nM (EC50).

In general, IC50 refers to the concentration that inhibits the measured activity by half. A low value points to greater potency in that assay. As to `C=C(c1ccc(NC(N)=O)cc1)c1ccc2c(c1)Nc1ccccc1S2`, the result with HT-1080 [2], in the experiment with Calu-1 [3], in the experiment on HT-1080 [4], in the experiment with Mus musculus [5], in the experiment on Mus musculus [6] and with Mus musculus [7] was Active. The outcome (in the experiment with Calu-1 [9]; in the experiment with Mus musculus [10]; in [11]; in the experiment with Mus musculus [12]; with HT-1080 [13]; with Mus musculus [16]) was Active. For the same molecule, the outcome with HT-1080 [17] and with HT-1080 [18] was Active. The same molecule had an IC50 in experiment [8] of over 30000 nM. The EC50 in the experiment with HT-1080 [14] was 1.61 nM; in the experiment on HT-1080 [1] it was 1 nM; in the experiment with MDA-MB-231 it was 1.01 nM; in the experiment with Calu-1 [15], 3.36 nM; with ES-2, 1.81 nM.

In the experiment with HT-1080 [1], `C=C(c1ccc(-c2ccccc2)cc1)c1ccc2c(c1)Nc1ccccc1S2` came in with an EC50 of 41 nM.

`C=C(c1ccc(NC(=O)N(C)C)cc1)c1ccc2c(c1)Nc1ccccc1S2` gave an EC50 with HT-1080 [1] of 20 nM.

On to `C=C(c1ccc(C(C)C)cc1)c1ccc2c(c1)Nc1ccccc1S2`, for which the EC50 with HT-1080 [1] turned out to be 40 nM.

`C=C(c1ccc2c(c1)Nc1ccccc1S2)c1cncc2ccccc12` gave an EC50 in the experiment on HT-1080 [1] of 25 nM.

Regarding `C=C(c1ccc2c(c1)Nc1ccccc1S2)c1cnc2c(cnn2C)c1`, the EC50 in the experiment on HT-1080 [1] came out at 58 nM.

For the molecule `C=C(c1ccc2c(c1)Nc1ccccc1S2)c1ccc2c(c1)OCCO2`, the EC50 in the experiment with HT-1080 [1] came to 37 nM.

Turning to `C=C(c1ccc(C(F)(F)F)cc1)c1ccc2c(c1)Nc1ccccc1S2`, the response in the experiment on HT-1080 [1] was half-maximal at 11 nM (EC50).

In the experiment with HT-1080 [1], `C=C(c1ccc(N2CCOCC2)cc1)c1ccc2c(c1)Nc1ccccc1S2` displayed an EC50 of 39 nM.

In the experiment on HT-1080 [1], `C=C(c1ccc2c(c1)Nc1ccccc1S2)c1ccc2c(c1)SCC(=O)N2` showed an EC50 of 33 nM.

`C=C(c1ccc2c(c1)Nc1ccccc1S2)c1cccc2cnccc12`: in the experiment on HT-1080 [1], a half-maximal effect (EC50) was put at 26 nM.

Regarding `C=C(c1ccccc1)c1ccc2c(c1)Nc1ccccc1S2`, the EC50 in the experiment on HT-1080 [1] is 10 nM.

In the case of `C=C(c1ccc2c(c1)Nc1ccccc1S2)c1cnc2ccccc2c1`, in the experiment on HT-1080 [1], the EC50 was determined as 19 nM.

For the molecule `C=C(c1ccc(NC(C)=O)cc1)c1ccc2c(c1)Nc1ccccc1S2`, the IC50 in experiment [8] came to 22000 nM. This molecule came in with an EC50 in the experiment with HT-1080 [1] of 4 nM.

With `C=C(c1ccc2c(c1)Nc1ccccc1S2)c1cccc2ccncc12`, the midpoint of the response in the experiment with HT-1080 [1], the EC50, lay at 21 nM.

As for `C=C(c1ccc(N2CC[C@H](N(C)C)C2)cc1)c1ccc2c(c1)Nc1ccccc1S2`, half-maximal inhibition in [8] (IC50) was put at 5060 nM. Besides, it took 1 nM to reach a half-maximal effect in the experiment on HT-1080 [1] (EC50).

Consider `CC(c1ccc(N2C[C@@H]3C[C@H]2CN3C)cc1)c1ccc2c(c1)Nc1ccccc1S2` (stereo partly drawn), for which, in experiment [8], the IC50 was determined as 1980 nM. This molecule came in with an EC50 with HT-1080 [1] of 3 nM.

`C=C(c1ccc(OC)cc1)c1ccc2c(c1)Nc1ccccc1S2` yielded an EC50 in the experiment on HT-1080 [1] of 13 nM.

Consider `C=C(c1cccc(N)c1)c1ccc2c(c1)Nc1ccccc1S2`, for which, in the experiment on HT-1080 [1], the EC50 stood at 17 nM.

In turn, `C=C(c1ccc2c(c1)Nc1ccccc1S2)c1cnc2c(ccn2C)c1` showed an EC50 in the experiment on HT-1080 [1] of 42 nM.

`C=C(c1ccc(N)cc1)c1ccc2c(c1)Nc1ccccc1S2` returned an EC50 in the experiment with HT-1080 [1] of 8 nM.

In the case of `C=C(c1cnc2c(c1)CCN2)c1ccc2c(c1)Nc1ccccc1S2`, the EC50 in the experiment on HT-1080 [1] came to 89 nM.

As for `C=C(c1ccc(C2CCCCC2)cc1)c1ccc2c(c1)Nc1ccccc1S2`, in the experiment on HT-1080 [1], the midpoint of the response, the EC50, lay at 39 nM.

`C=C(c1ccc(N2C[C@@H]3C[C@H]2CN3C)cc1)c1ccc2c(c1)Nc1ccccc1S2` yielded an IC50 in experiment [8] of 12000 nM. For the same molecule, it took 3 nM to reach a half-maximal effect in the experiment with HT-1080 [1] (EC50).

These data come from ChEMBL document CHEMBL5107990, “Discovery of 2-vinyl-10H-phenothiazine derivatives as a class of ferroptosis inhibitors with minimal human Ether-a-go-go related gene (hERG) activity for the treatment of DOX-induced cardiomyopathy” (Bioorg Med Chem Lett, 2022).
